Consider 39 compounds from patent US9090632B2, “Bicyclic oxazole and thiazole compounds and their use as allosteric modulators of mGluR5 receptors” (Vanderbilt University, priority 2010, dated 2015).

Series [1] deals with human mGluR5 (Homo sapiens, UniProt P41594). Kind of series: Cell-based functional Ca2+ mobilization assay, potentiation of glutamate EC20 response (H10H cell-line). Conditions: H10H cell-line expressing recombinant human mGluR5; for Emax / Emax (%): in presence of glutamate EC20, normalized to maximal glutamate response; for EC50 / pEC50: potentiation in presence of glutamate EC20. The essentials:
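H10H HEK293A cells expressing human mGluR5a were loaded with 2 μM fluo-4 AM in HBSS/20 mM HEPES/2.5 mM probenecid pH 7.4 and read on an FDSS 6000. Compound was added after a ~3 s baseline, followed 2.3 min later by an EC20 glutamate concentration; potentiation EC50 came from non-linear curve fitting.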

The structures appear in SMILES notation. Some results are limits rather than exact numbers.

human mGluR5, sequence (P41594 21-1180 isoform P41594-2 limits assumed): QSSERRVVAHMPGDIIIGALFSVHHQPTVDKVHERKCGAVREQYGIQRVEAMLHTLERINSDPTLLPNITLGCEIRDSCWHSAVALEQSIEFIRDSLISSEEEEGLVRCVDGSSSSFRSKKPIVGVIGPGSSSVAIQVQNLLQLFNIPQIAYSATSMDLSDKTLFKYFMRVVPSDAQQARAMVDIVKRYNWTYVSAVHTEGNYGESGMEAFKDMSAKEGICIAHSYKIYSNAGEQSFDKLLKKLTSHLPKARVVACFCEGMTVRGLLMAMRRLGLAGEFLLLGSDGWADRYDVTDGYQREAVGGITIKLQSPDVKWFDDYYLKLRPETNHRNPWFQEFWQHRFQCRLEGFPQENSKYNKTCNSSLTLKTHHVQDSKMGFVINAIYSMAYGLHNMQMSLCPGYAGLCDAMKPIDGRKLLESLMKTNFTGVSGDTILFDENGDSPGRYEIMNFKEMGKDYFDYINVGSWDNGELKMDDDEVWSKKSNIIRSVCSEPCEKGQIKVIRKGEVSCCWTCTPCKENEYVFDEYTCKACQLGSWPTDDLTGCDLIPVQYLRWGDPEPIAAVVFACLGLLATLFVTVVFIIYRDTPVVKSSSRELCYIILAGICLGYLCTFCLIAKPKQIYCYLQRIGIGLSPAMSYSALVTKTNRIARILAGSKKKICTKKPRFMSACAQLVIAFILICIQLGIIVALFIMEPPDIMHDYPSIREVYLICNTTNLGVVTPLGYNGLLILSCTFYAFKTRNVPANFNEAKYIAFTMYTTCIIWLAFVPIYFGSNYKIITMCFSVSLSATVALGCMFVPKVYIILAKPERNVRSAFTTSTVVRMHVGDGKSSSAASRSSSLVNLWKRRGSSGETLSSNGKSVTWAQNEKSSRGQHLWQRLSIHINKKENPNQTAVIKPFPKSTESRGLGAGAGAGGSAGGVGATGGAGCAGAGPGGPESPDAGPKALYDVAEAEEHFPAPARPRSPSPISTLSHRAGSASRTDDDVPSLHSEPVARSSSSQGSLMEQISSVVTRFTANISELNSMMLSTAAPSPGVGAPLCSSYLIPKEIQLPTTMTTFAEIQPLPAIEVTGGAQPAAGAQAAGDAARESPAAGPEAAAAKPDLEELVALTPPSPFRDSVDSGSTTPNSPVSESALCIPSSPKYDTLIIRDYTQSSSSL

By Emax is commonly meant the maximal effect, on the per cent scale that the assay sets. Broadly, the EC50 is the concentration giving half of the maximal effect. Broadly, the melting point is the temperature of the solid-liquid transition. The compound `N#Cc1ccc(C(=O)N2CCc3nc(COc4cccc(F)c4)oc3C2)cc1F` [Example B89] yielded a melting point of 102.9 °C. For the same compound, in series [1], the Emax was found to be 61% and the EC50 is 2190 nM.

The compound `N#Cc1cc(C(=O)N2CCc3nc(COc4ccccc4)oc3C2)ccc1F` [Example B98] showed a melting point of 128.2 °C. In series [1], the Emax worked out at 73% and the EC50 is 741 nM.

With `O=C(c1ccnnc1)N1CCc2nc(COc3ccccc3)oc2C1` [Example B150], the melting point was greater than 300 °C. Moreover, in series [1], the Emax was determined as 44% and the EC50 is greater than 10000 nM.

`CN(C)c1cccc(C(=O)N2CCc3nc(COc4ccccc4)oc3C2)c1` [Example B83] had a melting point of 102.9 °C. For the same compound, in series [1], the Emax turned out to be 67% and the concentration for a half-maximal effect (EC50) was 501 nM.

With `O=C(c1ccc2c(c1)OCO2)N1CCc2nc(COc3ccccc3)oc2C1` [Example B76], the melting point is 121.3 °C. Moreover, in series [1], the Emax came to 75% and the EC50 was 708 nM.

In the case of `O=C(N1CCc2nc(COc3ccccc3)oc2C1)C(F)(F)F` [Example B34, 2-(phenoxymethyl)-5-(trifluoroacetyl)-4,5,6,7-tetrahydro[1,3]oxazolo[5,4-c]pyridine], the melting point is 71.8 °C. In series [1], the Emax was found to be 10% and the EC50 was 891 nM.

Consider `O=C(c1cncc(F)c1)N1CCc2nc(COc3ccccc3)oc2C1` [Example B65], for which the melting point is 98.3 °C. In addition, in series [1], the Emax amounted to 49% and the EC50 is 3720 nM.

`O=C(c1cccc2c1OCCO2)N1CCc2nc(COc3ccccc3)oc2C1` [Example B99] returned a melting point of 55.5 °C. Further, in series [1], the Emax worked out at 57% and the EC50 is 776 nM.

`O=C(c1cnn2ccccc12)N1CCc2nc(COc3ccccc3)oc2C1` [Example B95] gave a melting point of 130.8 °C. Further, in series [1], the Emax amounted to 64% and the EC50 is greater than 10000 nM.

Consider `O=C(c1ccc(OC(F)(F)F)cc1)N1CCc2nc(COc3ccccc3)oc2C1` [Example B75], for which the melting point was greater than 300 °C. Also, in series [1], the Emax stood at 70% and the EC50 was 933 nM.

Take `O=C(c1cccc(F)c1)N1CCc2nc(COc3cccc(F)c3)oc2C1` [Example B27]: the melting point was 74.7 °C. In series [1], the Emax came to 76% and the EC50 is 186 nM.

For the compound `O=C(c1ccc(F)cc1)N1CCc2nc(COc3cccc(C(F)(F)F)c3)oc2C1` [Example B127], the melting point was 78.9 °C. Also, in series [1], the Emax worked out at 40% and the EC50 was greater than 10000 nM.

Take `O=C(c1ccc2ccccc2n1)N1CCc2nc(COc3ccccc3)oc2C1` [Example B79]: the melting point was 107.6 °C. In series [1], the Emax turned out to be 59% and the EC50 was 1820 nM.

`O=C(c1ccccc1)N1CCc2nc(COc3cccc(F)c3)oc2C1` [Example B26] registered a melting point of 204.7 °C. For the same compound, in series [1], the Emax was 80% and the EC50 was 251 nM.

For the compound `O=C(c1ccno1)N1CCc2nc(COc3ccccc3)oc2C1` [Example B88], the melting point was found to be 92.5 °C. Further, in series [1], the Emax stood at 53% and the EC50 was 1780 nM.

As to `O=C(c1cccc(F)c1)N1CCc2nc(COc3ccccc3)oc2C1` [Example B7, 5-[(3-fluorophenyl)carbonyl]-2-(phenoxymethyl)-4,5,6,7-tetrahydro[1,3]oxazolo[5,4-c]pyridine], the melting point was found to be 66 °C. Also, in series [1], the Emax was 80% and the concentration for a half-maximal effect (EC50) is 112 nM.

Take `Cn1cccc1C(=O)N1CCc2nc(COc3ccccc3)oc2C1` [Example B84]: the melting point was found to be 78.5 °C. Further, in series [1], the Emax came out at 53% and the EC50 is 257 nM.

With `N#Cc1cc(C(=O)N2CCc3nc(COc4cccc(F)c4)oc3C2)ccc1F` [Example B97], the melting point is 147.7 °C. For the same compound, in series [1], the Emax was 81% and the EC50 was 1050 nM.

For `O=C(c1cncc(F)c1)N1CCc2nc(COc3cccc(F)c3)oc2C1` [Example B67], the melting point is greater than 300 °C. In addition, in series [1], the Emax worked out at 49% and the EC50 was 3020 nM.

In turn, `Cc1oncc1C(=O)N1CCc2nc(COc3ccccc3)oc2C1` [Example B71] displayed a melting point of 158.2 °C. Also, in series [1], the Emax was determined as 21% and the EC50 was 331 nM.

On to `O=C(c1ccc(F)cc1F)N1CCc2nc(COc3cccc(F)c3)oc2C1` [Example B78], for which the melting point worked out at 90.1 °C. Besides, in series [1], the maximal response (Emax) worked out at 71% and the EC50 is 331 nM.

For `N#Cc1cccc(C(=O)N2CCc3nc(COc4ccccc4)oc3C2)c1` [Example B43], the melting point was found to be 130 °C. Moreover, in series [1], the Emax is 64.5% and the EC50 is 295 nM.

Take `O=C(c1ccc2[nH]cnc2c1)N1CCc2nc(COc3ccccc3)oc2C1` [Example B156]: the melting point came out at 198.1 °C. Also, in series [1], the Emax worked out at 14% and the EC50 was greater than 30200 nM.

On to `O=C(c1ccccc1F)N1CCc2nc(COc3ccccc3)sc2C1` [Example B5, 5-[(2-fluorophenyl)carbonyl]-2-(phenoxymethyl)-4,5,6,7-tetrahydro[1,3]thiazolo[5,4-c]pyridine], for which the melting point was 124.1 to 125.3 °C. In series [1], the Emax came to 64% and the EC50 was 871 nM.

`O=C(c1ccc(F)cc1)N1CCc2nc(COc3ccc(O)cc3)oc2C1` [Example B35, 4-({5-[(4-fluorophenyl)carbonyl]-4,5,6,7-tetrahydro[1,3]oxazolo[5,4-c]pyridin-2-yl}methoxy)phenol]: the melting point came out at 137.4 °C. Further, in series [1], the Emax worked out at 57% and the concentration giving a half-maximal response (EC50) is greater than 10000 nM.

As to `O=C(c1cc(F)cc(F)c1)N1CCc2nc(COc3cccc(F)c3)oc2C1` [Example B30], the melting point came to 70 °C. In series [1], the maximal response (Emax) came out at 44% and the EC50 is 148 nM.

As to `O=C(c1ccc(F)nc1)N1CCc2nc(COc3ccccc3)oc2C1` [Example B94], the melting point is 128.7 °C. Also, in series [1], the Emax is 68% and the EC50 was 1120 nM.

For `N#Cc1cccc(C(=O)N2CCc3nc(COc4cccc(F)c4)oc3C2)c1` [Example B85], the melting point is greater than 300 °C. Also, in series [1], the Emax amounted to 57% and the EC50 is 219 nM.

For the compound `Cc1ccccc1OCc1nc2c(o1)CN(C(=O)c1ccc(F)cc1)CC2` [Example B37], in series [1], the maximal response (Emax) came to 57% and the concentration giving a half-maximal response (EC50) was 2400 nM.

Compound `Cc1ccc(OCc2nc3c(o2)CN(C(=O)c2ccc(F)cc2)CC3)cc1` [Example B70] showed a melting point of 137.2 °C. In series [1], the Emax is 56% and the EC50 was greater than 10000 nM.

Compound `N#Cc1ccc(C(=O)N2CCc3nc(COc4ccccc4)oc3C2)cc1` [Example B49] yielded a melting point of 132.2 °C. In addition, in series [1], the Emax amounted to 58% and the EC50 was 3090 nM.

As to `O=C(c1ccccc1F)N1CCc2nc(COc3ccccc3)oc2C1` [Example B9], in series [1], the Emax was found to be 68% and the EC50 is 490 nM.

`O=C(c1ncc(F)cc1F)N1CCc2nc(COc3cccc(F)c3)oc2C1` [Example B101] gave a melting point of 109.8 °C. In series [1], the maximal response (Emax) amounted to 67% and the EC50 was 3310 nM.

Compound `Cc1nc(C(=O)N2CCc3nc(COc4ccccc4)oc3C2)c(C)o1` [Example B86] displayed a melting point of 104.4 °C. Further, in series [1], the Emax came to 53% and the concentration giving a half-maximal response (EC50) was greater than 10000 nM.

The term pEC50 denotes the negative decadic logarithm of the EC50, by convention in mol/L. For the compound `O=C(c1cccnc1)N1CCc2nc(COc3ccccc3)oc2C1` [Example B18], in series [1], the “Emax (%)” value was 69% and the negative logarithm of the EC50 (pEC50) is 5.33.

As to `COCc1ccc(C(=O)N2CCc3nc(COc4ccccc4)oc3C2)o1` [Example B104], in series [1], the Emax stood at 62% and the concentration for a half-maximal effect (EC50) is greater than 10000 nM.

Consider `CC(=O)N1CCc2nc(COc3ccccc3)oc2C1` [Example B24], for which, in series [1], the Emax came out at 53% and the EC50 is greater than 10000 nM.

`O=C(c1ccc(F)cn1)N1CCc2nc(COc3ccccc3)oc2C1` [Example B40] came in with a melting point of 113.1 °C. Moreover, in series [1], the Emax is 67% and the EC50 was 2950 nM.

Take `O=C(c1ccc(Cl)o1)N1CCc2nc(COc3ccccc3)oc2C1` [Example B57]: in series [1], the “Emax (%)” value worked out at 57% and the pEC50 was determined as 7.14.
